Data as given in ChEMBL document CHEMBL6153127, “Cyclodepsipeptides and Fatty Acid Lactones from the Freshwater-Derived Fungus, Talaromyces gwangjuensis, and Their Potential as Autophagy Activators” (J Nat Prod, 2025).
Activity calls are given as the source filed them. No cut-off for these calls is given here.

Tests used:
Type in all cases: functional, cell-based
HEK293-A [1] = test: Regulation of autophagy in HEK293-A cells expressing GFP-tagged LC3 assessed as increase in green fluorescence at 10 uM incubated for 24 hrs by confocal microscopy; conditions: Homo sapiens
HEK293-A [2] = test: Cytotoxicity against HEK293-A cells expressing GFP-tagged LC3 assessed as cell viability at 10 uM incubated for 24 hrs by MTT assay; conditions: Homo sapiens
IMR-90 [3] = test: Induction of autophagy in human IMR-90 cells expressing GFP-mCherry-tagged LC3 assessed as increase in red puncta at 10 uM incubated for 24 hrs by DAPI staining based confocal microscopy
IMR-90 [4] = test: Induction of autophagic flux in human IMR-90 cells expressing GFP-mCherry-tagged LC3 assessed as accumulation of LC3B-II incubated for 6 hrs in presence of chloroquine by Western blot analysis; conditions: dose 1-20 µM

SMILES | Activity (HEK293-A [1]) | Activity (HEK293-A [2]) | Activity (IMR-90 [3]) | Activity (IMR-90 [4])
CCCCCCCC[C@@H]1COC(=O)[C@H](CO)NC(=O)[C@H](C(=O)c2c[nH]c3ccccc23)NC(=O)[C@@H](CCC(=O)O)NC(=O)[C@@H](C)[C@H]1O | Active | inactive |  | 
CCCCCCCC[C@@H](C)[C@@H]1OC(=O)[C@H](CO)NC(=O)[C@H](C(=O)c2c[nH]c3ccccc23)NC(=O)[C@@H](CCC(=O)O)NC(=O)[C@H]1C | Active | inactive |  | 
CCCCCCCC[C@@H](C)[C@@H]1OC(=O)[C@H](CO)NC(=O)[C@H](C(=O)c2c[nH]c3ccccc23)NC(=O)[C@@H](CCC(=O)OCC)NC(=O)[C@H]1C | Active | inactive |  | 
C=C1C(=O)O[C@H](CCCCCCCCCC)[C@H]1[C@@H](O)C(=O)OCC |  | inactive |  | 
CCCCCCCC[C@@H](C)[C@@H]1OC(=O)[C@H](CO)NC(=O)/C(=C/c2c[nH]c3ccccc23)NC(=O)[C@@H](CCC(=O)O)NC(=O)[C@H]1C | Active | inactive | Active | 
CCCCCCCCCC[C@H](O)C1=C(COCC)C(=O)OC1 |  | inactive |  | 
O=C(c1c[nH]c2ccccc12)C(O)CO (stereo not drawn) |  | inactive |  | 
C=C1C(=O)O[C@@H](C(=O)O)[C@@H]1CCCCCCCCCCC |  | Active |  | 
CCCCCCCCCCCC[C@H](O)[C@]1(O)[C@@H](COC)C(=O)O[C@H]1C(=O)O |  | inactive |  | 
CCCCCCCC[C@@H](COC(C)=O)[C@@H]1OC(=O)[C@H](CO)NC(=O)[C@H](C(=O)c2c[nH]c3ccccc23)NC(=O)[C@@H](CCC(=O)OCC)NC(=O)[C@H]1C | Active | inactive |  | 
CCCCCCCC[C@@H](COC(C)=O)[C@@H]1OC(=O)[C@H](CO)NC(=O)[C@H](C(=O)c2c[nH]c3ccccc23)NC(=O)[C@@H](CCC(=O)O)NC(=O)[C@H]1C | Active | inactive | Active | Dose-dependent-effect
CCCCCCCC[C@@H](C)[C@@H]1OC(=O)[C@H](CO)NC(=O)[C@H](Cc2c[nH]c3ccccc23)NC(=O)[C@@H](CCC(=O)O)NC(=O)[C@H]1C | Active | inactive | Active | 
